Where two headings read alike, the source gives them in different places.
Key:
M1 muscarinic receptor = molecular target: T1, M1 muscarinic receptor (Homo sapiens, UniProt P11229); experiment: Functional mobilization of intracellular calcium (FLIPR, Fluo-3), M1-CHO cells; assay type: cell-based; conditions: for Emax: 100% efficacy is the maximum response obtained with the Carbachol control, read-out: M1 Efficacy
T1 construct: expressed in transfected cells; host or cells: CHO cells (M1-CHO, under zeocin and G418 selection)
T1 sequence (P11229 1-460): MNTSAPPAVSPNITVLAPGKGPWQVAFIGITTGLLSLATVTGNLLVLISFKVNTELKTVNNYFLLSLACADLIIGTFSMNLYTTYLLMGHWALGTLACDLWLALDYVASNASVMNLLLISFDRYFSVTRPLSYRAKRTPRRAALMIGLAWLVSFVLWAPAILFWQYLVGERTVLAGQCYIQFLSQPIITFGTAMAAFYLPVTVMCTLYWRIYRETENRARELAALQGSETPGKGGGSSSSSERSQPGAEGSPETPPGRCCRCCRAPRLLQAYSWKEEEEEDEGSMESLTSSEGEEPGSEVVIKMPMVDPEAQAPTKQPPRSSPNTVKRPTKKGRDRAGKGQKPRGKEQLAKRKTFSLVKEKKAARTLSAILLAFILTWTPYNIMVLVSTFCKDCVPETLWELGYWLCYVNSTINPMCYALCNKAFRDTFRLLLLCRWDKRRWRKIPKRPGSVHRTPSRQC
Method: (§1) CHO cells expressing muscarinic receptors (M1 to M5) are grown as monolayers in tissue culture flasks at 37° C. in a humidified atmosphere containing 5% CO2 and passaged every 3-5 days. The growth media is Dulbecco's modified eagles medium (DMEM, Gibco Cat#12430-054), containing 25 mM Hepes and supplemented with Fetal Bovine Serum (Hyclone, cat# SH30071.03), 0.1 mM of MEM non-essential amino acids (GIBCO, Cat# 11140-050), 1 mM MEM Sodium Pyruvate (GIBCO Cat# 11360-070) and 100 units/ml of Penicillin G and 100 μg/ml of Streptomycin (GIBCO Cat# 15140-122). The recombinant muscarinic receptor cell lines are grown under antibiotic pressure with media containing 25 μm/ml zeocin and 500 μg/ml G418 (M1-CHO), 4 μg/ml puromycin, 50 μg/ml zeocin and 2.5 μm/ml blasticidin (M2 and M4-CHO) or 50 μg/ml zeocin and 4 μg/ml puromycin (M3 and M5-CHO).
(§2) Cells are harvested at 80-90% confluence using Versene (GIBCO Cat# 15040-066), collected by centrifugation and seeded 18-24 hrs prior to running the calcium assay at a density of 5,000-10,000 cells/well in […], clear-bottomed 384-well plates (BD Biocoat, poly-D-lysine, Cat#356663). The day of the experiment, the cells are washed with a plate washer (Bioteck Instruments, ELX 405) using bath1 buffer (140-mM NaCl, 4.5-mM KCL, 2-mM CaCl2, 1-mM MgCl2, 10-mM Hepes-Na, 10-mM Glucose, pH 7.4, with NaOH) containing 1 mM Probenecid. Next, the calcium dye Fluo-3 (25 μl/well of Fluo-3 μM at 4 μM, Molecular Probes F-1241, in Bath 1 buffer containing 1 mM Probenecid) is added to the 25 μl of Bath 1 remaining in each well after the plate wash and the dye is loaded at 37° C. in the tissue culture incubator for 60-90 min. The fluorescent dye is removed using the plate washer with Bath 1 containing 1 mM Probenecid, leaving 25 μl/well of this solution after the wash. Alternatively, cells can be loaded with the calcium indicator from Molecular Devices (Calcium 3 Assay Reagents, Cat # R7181) adding 5 μl of a 5× solution dye in Bath 1 containing 1 mM Probenecid (10 ml per dye flask cat# R7182 to generate a solution 20×) to 20 μl of the same buffer. After loading for 60 min, the experiment can be run without having to remove the dye.
(§3) Compounds are prepared at a 2× fold concentration in a 96-well plate (round bottom, Costar Corning cat# 3656), by reconstituting the pre-spotted compounds in bath 1 containing 1 mM probenecid. The final concentration DMSO is 0.5%, and the amount of DMSO is normalized across the assay plate. To determine an agonist action of the compounds on muscarinic receptors, the reconstituted compounds are added (25 μl compound/well) to the cell assay plate (containing 25 μl/well) using the multi-channel robotic system of the FLIPR 3 Instrument (Molecular Devices, Sunnyvale, Calif.). To determine a functional inhibitory action of the compounds on muscarinic receptors, the reconstituted compounds are added (25 μl compound/well) to the assay plate and pre-incubated for 15 min prior to adding 25 μl of Carbachol at 3× the EC80 for each muscarinic subtype. Alternatively, the compounds can be co-applied simultaneously with the agonist. In both assay modes, the fluorescence is recorded for 60 sec (excitation wavelength is […] and emission wavelength 540 nm) using the FLIPR 3 instrument.
(§4) The potency, efficacy and selectivity of the muscarinic compounds were evaluated by screening the compound activity across the whole family (M1 to M5 cells). Compounds were also screened for activity on other proteins such as other GPCRs and ion channels to determine selectivity on M4 receptors.

M4 muscarinic receptor = molecular target: T2, M4 muscarinic receptor (Homo sapiens, UniProt P08173); experiment: Functional mobilization of intracellular calcium (FLIPR, Fluo-3), M4-CHO cells; assay type: cell-based; conditions: for Emax: 100% efficacy is the maximum response obtained with the Carbachol control, read-out: M4 Efficacy
T2 construct: expressed in transfected cells; host or cells: CHO cells (M4-CHO, under puromycin, zeocin and blasticidin selection)
T2 sequence (P08173 1-479): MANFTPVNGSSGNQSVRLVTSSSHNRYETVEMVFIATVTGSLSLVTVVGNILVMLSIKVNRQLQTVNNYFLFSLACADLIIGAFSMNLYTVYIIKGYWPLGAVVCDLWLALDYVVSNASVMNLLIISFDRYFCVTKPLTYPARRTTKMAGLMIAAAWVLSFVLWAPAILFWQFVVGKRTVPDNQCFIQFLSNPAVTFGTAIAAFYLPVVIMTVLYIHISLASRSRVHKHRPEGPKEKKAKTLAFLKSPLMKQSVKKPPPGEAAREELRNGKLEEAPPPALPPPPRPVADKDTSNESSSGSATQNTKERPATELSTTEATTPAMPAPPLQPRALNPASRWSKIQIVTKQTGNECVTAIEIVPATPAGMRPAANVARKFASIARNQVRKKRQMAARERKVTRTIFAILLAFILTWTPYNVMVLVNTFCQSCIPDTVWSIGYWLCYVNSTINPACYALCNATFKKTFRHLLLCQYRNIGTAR
Method: as §1, §2, §3, §4

[1] = compound nos. 1-454, M1-CHO cells, calcium mobilization
[2] = compound nos. 1-454, M4-CHO cells, calcium mobilization

| Compound | M1 Activity (M1 muscarinic receptor; compound nos. 1-454) | Emax (M1 muscarinic receptor; compound nos. 1-454) [%] | M4 Activity (M4 muscarinic receptor; compound nos. 1-454) | Emax (M4 muscarinic receptor; compound nos. 1-454) [%] | M1 Activity (M1 muscarinic receptor; [1]) | M4 Activity (M4 muscarinic receptor; [2]) | Emax (M1 muscarinic receptor; compound nos. 455-509) [%] | M1 Activity (M1 muscarinic receptor; compounds 455-509) | Emax (M4 muscarinic receptor; compound nos. 455-509) [%] | M4 Activity (M4 muscarinic receptor; compounds 455-509) |
| --- | --- | --- | --- | --- | --- | --- | --- | --- | --- | --- |
| Cc1ccc2c(c1)C1(CCN(C3CC4CCC(C4)C3)CC1)CN2 (stereo not drawn) [compound 397] | ++ (activity was measured to be between 0.7 μM and 3.0 μM) | 65 to 85 | + (activity was measured to be greater than or equal to 4.0 μM) | < 55 |  |  |  |  |  |  |
| c1ccc2c(c1)NCC21CCN(CC2CC3CCC2C3)CC1 (stereo not drawn) [compound 110] |  | < 65 |  | < 55 | +++ (activity was measured to be less than or equal to 0.7 μM) | ++ (activity was measured to be between 0.1 μM and 4.0 μM) |  |  |  |  |
| CCOC(=O)N1CCC(N2CCC3(CC2)CN(C(=O)c2ccccc2)c2ccc(F)cc23)CC1 [compound 384] | ++ (activity was measured to be between 0.7 μM and 3.0 μM) | < 65 | + (activity was measured to be greater than or equal to 4.0 μM) | < 55 |  |  |  |  |  |  |
| CN(C)C(=O)N1CC2(CCN(C3CCN(c4ccc(F)cc4)CC3)CC2)c2cc(F)ccc21 [compound 439] | ++ (activity was measured to be between 0.7 μM and 3.0 μM) | 65 to 85 | +++ (activity was measured to be less than or equal to 0.1 μM) | < 55 |  |  |  |  |  |  |
| CC#CCOC(=O)N1CCC(N2CCC3(CC2)CN(C(=O)N(C)C)c2ccc(F)cc23)CC1 [compound 353] |  | > 85 |  | 55 to 70 | +++ (activity was measured to be less than or equal to 0.7 μM) | + (activity was measured to be greater than or equal to 4.0 μM) |  |  |  |  |
| COC(=O)N1C2CCC1CC(N1CCC3(CC1)COc1ccc(F)cc13)C2 (stereo not drawn) [compound 156] |  | 65 to 85 |  | > 70 | +++ (activity was measured to be less than or equal to 0.7 μM) | +++ (activity was measured to be less than or equal to 0.1 μM) |  |  |  |  |
| CCOC(=O)N1CCC(N2CCC3(CC2)CN(C(=O)C2CCCC2)c2ccc(F)cc23)CC1 [compound 17] |  | < 65 |  | 55 to 70 | ++ (activity was measured to be between 0.7 μM and 3.0 μM) | ++ (activity was measured to be between 0.1 μM and 4.0 μM) |  |  |  |  |
| CCOC(=O)N1CCC(N2CCC3(CC2)CN(C(=O)c2ccccc2C)c2ccc(F)cc23)CC1 [compound 53] |  | < 65 |  | 55 to 70 | ++ (activity was measured to be between 0.7 μM and 3.0 μM) | ++ (activity was measured to be between 0.1 μM and 4.0 μM) |  |  |  |  |
| COCCOC(=O)N1C2CCC1CC(N1CCC3(CC1)CN(C(=O)C1CC1)c1ccc(F)cc13)C2 (stereo not drawn) [compound 311] |  | 65 to 85 |  | 55 to 70 | +++ (activity was measured to be less than or equal to 0.7 μM) | + (activity was measured to be greater than or equal to 4.0 μM) |  |  |  |  |
| CN(C)C(=O)N1CC2(CCN(C3CCN(C(=O)OCCF)CC3)CC2)c2cc(F)ccc21 [compound 48] |  | > 85 |  | 55 to 70 | +++ (activity was measured to be less than or equal to 0.7 μM) | ++ (activity was measured to be between 0.1 μM and 4.0 μM) |  |  |  |  |
| Cc1cnc(N2CCC(N3CCC4(CC3)CN(C(=O)N(C)C)c3ccccc34)CC2)cn1 [compound 468] |  |  |  |  |  |  | > 100 | + (activity was measured to be greater than or equal to 5.0 μM) | 25 to 100 | ++ (activity was measured to be between 2.0 μM and 5.0 μM) |
| CC(=O)N1CC2(CCN(CC3CC4CCC3C4)CC2)c2cc(C)ccc21 (stereo not drawn) [compound 118] |  | 65 to 85 |  | < 55 | +++ (activity was measured to be less than or equal to 0.7 μM) | + (activity was measured to be greater than or equal to 4.0 μM) |  |  |  |  |
| CCOC(=O)N1CCC(N2CCC3(CC2)CN(C(C)=O)c2ccc(Cl)cc23)CC1 [compound 141] |  | > 85 |  | > 70 | +++ (activity was measured to be less than or equal to 0.7 μM) | ++ (activity was measured to be between 0.1 μM and 4.0 μM) |  |  |  |  |
| COCCOC(=O)N1C2CCC1CC(N1CCC3(CC1)CN(C(=O)OC1CCC1)c1ccc(F)cc13)C2 (stereo not drawn) [compound 106] |  | 65 to 85 |  | < 55 | +++ (activity was measured to be less than or equal to 0.7 μM) | ++ (activity was measured to be between 0.1 μM and 4.0 μM) |  |  |  |  |
| C/C=C\c1ccc2c(c1)C1(CCN(C3CCN(C(=O)OCC)CC3)CC1)CN2C(C)=O [compound 407] | ++ (activity was measured to be between 0.7 μM and 3.0 μM) | < 65 | + (activity was measured to be greater than or equal to 4.0 μM) | < 55 |  |  |  |  |  |  |
| CC(=O)N1CC2(CCN(CC3CCOC3)CC2)c2cc(F)ccc21 (stereo not drawn) [compound 135] |  | > 85 |  | > 70 | +++ (activity was measured to be less than or equal to 0.7 μM) | ++ (activity was measured to be between 0.1 μM and 4.0 μM) |  |  |  |  |
| Cc1ccc2c(c1)C1(CCN(CC3CC4CCC3C4)CC1)CN2C(=O)OC(C)(C)C (stereo not drawn) [compound 382] | +++ (activity was measured to be less than or equal to 0.7 μM) | 65 to 85 | + (activity was measured to be greater than or equal to 4.0 μM) | 55 to 70 |  |  |  |  |  |  |
| COC(=O)N1C2CCC1CC(N1CCC3(CC1)CN(C(=O)c1cc(C)n(C)n1)c1ccc(F)cc13)C2 (stereo not drawn) [compound 44] |  | 65 to 85 |  | > 70 | +++ (activity was measured to be less than or equal to 0.7 μM) | ++ (activity was measured to be between 0.1 μM and 4.0 μM) |  |  |  |  |
